Reference: patent US11298345B2, “Compounds that modulates AMPA receptor function” (University College Cardiff Consultants Limited, priority 2018, dated 2022)

Target: T1, human GluR2 flip (unedited) AMPA receptor subunit (Homo sapiens, UniProt P42262)
T1 construct: host or cells: HEK 293
Assay: AMPA calcium ion influx assay
Format: cell-based
Conditions: HEK293; test compound concentration of 10 μM; HEK 293 cells expressing human GluR2 flip; glutamate stimulus; read-out: Mean % response at 10 μM
From the text: The potentiation of AMPA receptors by the compounds of the invention may be assessed by measuring calcium ion influx via AMPA receptors upon exposure of the receptor to glutamate in the presence of a test compound. One such assay is the calcium ion influx assay described in the Examples using cells which express human GluR2 flip (GluA2 flip) AMPA receptor subunits which form functional homotetrameric AMPA receptors. The GluA2 flip sub-units are highly expressed in cortical and sub-cortical brain tissue (Ward et al., 2010, ibid).
The ability of the compounds of the invention to potentiate glutamate receptor-mediated response was determined using fluorescent calcium-indicator dye.
96 well plates were prepared containing confluent monolayer of HEK 293 cells stably expressing human GluR2 flip (unedited) AMPA receptor subunit (obtained from GlaxoSmithKline). These cells form functional homotetrameric AMPA receptors. The tissue culture medium in the wells was discarded and the wells were each washed three times with standard buffer for the cell line ([…] NaCl, 5 mM KCl, 1 mM MgCl2, 2 mM CaCl2, 20 mM N-[2-hydroxyethyl]-piperazine-N-[2-ethanesulfonic acid (HEPES), 5.5 mM glucose, pH7.3). The plates were then incubated for 60 minutes in the dark with 2 μM Calcium 6 dye (Molecular Devices). After incubation, each well was washed three times with buffer (80 μl).
Compounds of the invention were dissolved in dimethylsulfoxide (DMSO) at a stock concentration of 10 mM. These solutions were further diluted with DMSO. Each dilution (4 μl) to another compound plate and buffer (200 μl) was added. An agonist stimulus plate (glutamate) was prepared by dissolving sodium glutamate in water to give a concentration of 100 mM. This solution was diluted with buffer to give a final concentration of 500 μM and dispensed into another 96 well plate (200 μl/well).
The cell plate was then transferred to a fluorescence imaging plate reader such as the Flexstation 3 (Molecular Devices). A baseline fluorescence was taken over a 10 to 240 second period and then 40 μl from each plate containing a compound of the invention made up in standard buffer solution was added. Volumes were chosen to give a final concentration range of 40 μM to 4 μM. The fluorescence was then read over a 4 minute period. The activities of the compounds were determined by measuring peak fluorescence after the last addition. The activity can also be expressed relative to the fluorescence increase induced by cyclothiazide at their maximum response (i.e. greater than 40 μM).

T1 sequence (P42262 22-883 isoform P42262-2 limits assumed): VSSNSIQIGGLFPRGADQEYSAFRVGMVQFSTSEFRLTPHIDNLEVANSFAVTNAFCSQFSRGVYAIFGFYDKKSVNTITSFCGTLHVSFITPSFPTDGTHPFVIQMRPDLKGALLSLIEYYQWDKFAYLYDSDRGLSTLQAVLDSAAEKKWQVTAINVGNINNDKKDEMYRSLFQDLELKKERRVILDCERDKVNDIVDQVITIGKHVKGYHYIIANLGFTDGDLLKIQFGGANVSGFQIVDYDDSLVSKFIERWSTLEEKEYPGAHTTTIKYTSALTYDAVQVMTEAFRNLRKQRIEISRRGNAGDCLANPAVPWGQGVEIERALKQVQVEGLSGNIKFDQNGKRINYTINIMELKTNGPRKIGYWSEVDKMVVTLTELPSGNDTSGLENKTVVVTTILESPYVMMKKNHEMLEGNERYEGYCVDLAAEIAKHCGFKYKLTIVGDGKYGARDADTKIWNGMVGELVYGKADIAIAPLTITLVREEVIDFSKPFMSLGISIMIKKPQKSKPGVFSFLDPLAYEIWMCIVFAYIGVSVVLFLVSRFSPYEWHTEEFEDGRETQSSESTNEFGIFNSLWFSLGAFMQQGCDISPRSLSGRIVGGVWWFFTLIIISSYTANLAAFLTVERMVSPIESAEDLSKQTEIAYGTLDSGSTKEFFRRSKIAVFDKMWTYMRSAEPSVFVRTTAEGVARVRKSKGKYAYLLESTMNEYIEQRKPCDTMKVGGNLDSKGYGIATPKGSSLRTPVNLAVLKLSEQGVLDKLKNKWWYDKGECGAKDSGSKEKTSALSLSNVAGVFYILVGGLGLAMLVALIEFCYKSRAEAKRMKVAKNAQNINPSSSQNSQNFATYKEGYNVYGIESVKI

| SMILES | activation at 10 µM [%] |
| --- | --- |
| Cc1cc(C(F)(F)F)nc(-c2ccc(CN3CCCC3=O)nc2)c1CO [Example 14, 1-[[5-[3-(Hydroxymethyl)-4-methyl-6-(trifluoromethyl)-2-pyridyl]-2-pyridyl]methyl]pyrrolidin-2-one] | 5 |
| Cc1cc(C(F)(F)F)nc(-c2ccc(CN3CCOCC3=O)cc2)c1CO [Example 9, 4-[[4-[3-(Hydroxymethyl)-4-methyl-6-(trifluoromethyl)-2-pyridyl]phenyl]methyl]morpholin-3-one] | 14 |
| O=C1COCCN1Cc1ccc(-c2nc(C(F)(F)F)ccc2CO)cc1 [Example 10, 4-[[4-[3-(Hydroxymethyl)-6-(trifluoromethyl)-2-pyridyl]phenyl]methyl]morpholin-3-one] | 3 |
| Cc1cc(C(F)(F)F)nc(-c2ccc(CN3CCOCCC3=O)cc2)c1CO [Example 13, 4-[[4-[3-(Hydroxymethyl)-4-methyl-6-(trifluoromethyl)-2-pyridyl]phenyl]methyl]-1,4-oxazepan-5-one] | 5 |
| O=C1COCCN1Cc1ccc(-c2ccc(CO)c(C(F)(F)F)n2)cc1 [Example 8, 4-[[4-[5-(Hydroxymethyl)-6-(trifluoromethyl)-2-pyridyl]phenyl]methyl]morpholin-3-one] | 14 |
| N#Cc1ccc(C(F)(F)F)nc1-c1ccc(CN2CCOCC2=O)cc1 [Example 11, 2-[4-[(3-Oxomorpholin-4-yl)methyl]phenyl]-6-(trifluoromethyl)pyridine-3-carbonitrile] | 11 |
| N#Cc1ccc(C(F)(F)F)nc1-c1ccc(CN2CCCC2=O)cc1 [Example 7, 2-[4-[(2-Oxopyrrolidin-1-yl)methyl]phenyl]-6-(trifluoromethyl)pyridine-3-carbonitrile] | 21 |
| CNC(=O)c1c(C)cc(C(F)(F)F)nc1-c1ccc(CN2CCCC2=O)cc1 [Example 3, N,4-Dimethyl-2-[4-[(2-oxopyrrolidin-1-yl)methyl]phenyl]-6-(trifluoromethyl)pyridine-3-carboxamide] | 4 |
| Cc1cc(C(F)(F)F)nc(-c2ccc(CN3CCCC3=O)cc2)c1CO [Example 2, 1-[[4-[3-(Hydroxymethyl)-4-methyl-6-(trifluoromethyl)-2-pyridyl]phenyl]methyl]pyrrolidin-2-one] | 41 |
| O=C1CCCN1Cc1ccc(-c2nc(C(F)(F)F)ccc2CO)cc1 [Example 4, 1-[[4-[3-(Hydroxymethyl)-6-(trifluoromethyl)-2-pyridyl]phenyl]methyl]pyrrolidin-2-one] | 9 |
| O=C1CCCN1Cc1ccc(-c2ccc(CO)c(C(F)(F)F)n2)cc1 [Example 1, 1-[[4-[5-(Hydroxymethyl)-6-(trifluoromethyl)-2-pyridyl]phenyl]methyl]pyrrolidin-2-one] | 33 |
| N#Cc1ccc(C(F)(F)F)nc1-c1ccc(CN2CCCC2=O)nc1 [Example 15, 2-[6-[(2-Oxopyrrolidin-1-yl)methyl]-3-pyridyl]-6-(trifluoromethyl)pyridine-3-carbonitrile] | 6 |
| Cc1cc(C(F)(F)F)nc(-c2ccc(CN3CCCC3=O)cc2)c1C#N [Example 5, 4-Methyl-2-[4-[(2-oxopyrrolidin-1-yl)methyl]phenyl]-6-(trifluoromethyl)pyridine-3-carbonitrile] | 99 |
| Cc1nc(C(F)(F)F)nc(-c2ccc(CN3CCCC3=O)cc2)c1C [Example 6, 1-[[4-[5,6-Dimethyl-2-(trifluoromethyl)pyrimidin-4-yl]phenyl]methyl]pyrrolidin-2-one] | 29 |
| Cc1cc(C(F)(F)F)nc(-c2ccc(CN3CCCOCC3=O)cc2)c1CO [Example 12, 4-[[4-[3-(Hydroxymethyl)-4-methyl-6-(trifluoromethyl)-2-pyridyl]phenyl]methyl]-1,4-oxazepan-3-one] | 9 |

Further lines, results first:

| activation at 10 µM [%] | SMILES |
| --- | --- |
| 39 | Cc1cc(C(F)(F)F)nc(-c2ccc(CN3CCOCC3=O)cc2)c1C#N [Example 24, 4-Methyl-2-[4-[(3-oxomorpholin-4-yl)methyl]phenyl]-6-(trifluoromethyl)pyridine-3-carbonitrile] |
| 9 | O=C1CCCN1Cc1ccc(-c2nc(C(F)(F)F)ccc2CF)cn1 [Example 23, 1-[[5-[3-(Fluoromethyl)-6-(trifluoromethyl)-2-pyridyl]-2-pyridyl]methyl]pyrrolidin-2-one] |
| 27 | Cc1cc(C(F)(F)F)nc(-c2ccc(CN3CCCC3=O)cc2)n1 [Example 27, 1-[[4-[4-Methyl-6-(trifluoromethyl)pyrimidin-2-yl]phenyl]methyl]pyrrolidin-2-one] |
| 8 | O=C1CCCN1Cc1ccc(-c2cc(CO)cc(C(F)(F)F)n2)cc1 [Example 25, 1-[[4-[4-(Hydroxymethyl)-6-(trifluoromethyl)-2-pyridyl]phenyl]methyl]pyrrolidin-2-one] |
| 111 | Cc1cc(C(F)(F)F)nc(-c2ccc(CN3CCCC3=O)cc2)c1CF [Example 17, 1-[[4-[3-(Fluoromethyl)-4-methyl-6-(trifluoromethyl)-2-pyridyl]phenyl]methyl]pyrrolidin-2-one] |
| 28 | O=C1CCCN1Cc1ccc(-c2ccc(CF)c(C(F)(F)F)n2)cc1 [Example 16, 1-[[4-[5-(Fluoromethyl)-6-(trifluoromethyl)-2-pyridyl]phenyl]methyl]pyrrolidin-2-one] |
| 112 | Cc1cc(C(F)(F)F)nc(-c2ccc(CN3CCOCC3=O)cc2)c1CF [Example 20, 4-[[4-[3-(Fluoromethyl)-4-methyl-6-(trifluoromethyl)-2-pyridyl]phenyl]methyl]morpholin-3-one] |
| 70 | O=C1CCCN1Cc1ccc(-c2nc(C(F)(F)F)ccc2CF)cc1 [Example 19, 1-[[4-[3-(Fluoromethyl)-6-(trifluoromethyl)-2-pyridyl]phenyl]methyl]pyrrolidin-2-one] |
| 4 | COCc1cc(-c2ccc(CN3CCCC3=O)cc2)nc(C(F)(F)F)c1 [Example 26, 1-[[4-[4-(Methoxymethyl)-6-(trifluoromethyl)-2-pyridyl]phenyl]methyl]pyrrolidin-2-one] |
| 5 | O=C1CCCN1Cc1ccc(-c2nc(C(F)(F)F)ncc2CF)cc1 [Example 18, 1-[[4-[5-(Fluoromethyl)-2-(trifluoromethyl)pyrimidin-4-yl]phenyl]methyl]pyrrolidin-2-one] |
| 16 | O=C1COCCN1Cc1ccc(-c2nc(C(F)(F)F)ccc2CF)cc1 [Example 21, 4-[[4-[3-(Fluoromethyl)-6-(trifluoromethyl)-2-pyridyl]phenyl]methyl]morpholin-3-one] |
| 2 | O=C1CCCN1Cc1ccc(-c2nc(C(F)F)ccc2CO)cc1 [Example 28, 1-[[4-[6-(Difluoromethyl)-3-(hydroxymethyl)-2-pyridyl]phenyl]methyl]pyrrolidin-2-one] |
| 93 | Cc1cc(C(F)(F)F)nc(-c2ccc(CN3CCCC3=O)nc2)c1CF [Example 22, 1-[[5-[3-(Fluoromethyl)-4-methyl-6-(trifluoromethyl)-2-pyridyl]-2-pyridyl]methyl]pyrrolidin-2-one] |
